# Key:
# Assay type in all cases: cell-based
# [1] = system: neonatal rat ventricular myocytes (NRVM); experiment: Total cellular protein by Bradford assay
# Description: (§1) Neonatal rat ventricular myocyte (NRVM) preparation and culture. Hearts were dissected from 1 to 3 day-old Sprague-Dawley rats, minced, and digested with collagenase (Worthington; […]) and pancreatin (Sigma; 1× activity equivalent) in 1× Ads buffer (NaCl [116 mM], HEPES [20 mM; pH 7.4], NaH2PO4 [4.8 mM], KCl [5 mM], MgSO4 [[…]], and glucose [5.5 mM]). Cells were centrifuged through a step gradient of Percoll (Pharmacia) to separate myocytes from fibroblasts, and the myocyte pool was further enriched by pre-plating for 2 hours to remove adherent fibroblasts from the cell population. Cells were cultured overnight on dishes coated with gelatin (Sigma; 0.2%) in DMEM containing fetal bovine serum (FBS) (10%), L-glutamine (2 mM), and penicillin-streptomycin. […]
# (§2) ANF competition ELISA and total protein measurements. […] Wells were washed 5× with TBS-T and exposed to TMB substrate (Kirkegaard & Perry; […]), which provides a colorimetric readout, for 30 minutes at room temperature. Reactions were terminated with H2SO4 (2N, […]) and absorbance at 450 nm detected using a Fusion Plate Reader (Perkin Elmer/Packard). […] Color development was allowed to proceed for 30 minutes prior to being measured at 595 nm using a micro-titer plate spectrophotometer (Molecular Devices).
# [2] = system: neonatal rat ventricular myocytes (NRVM); experiment: SERCA2 immunoblot analysis; conditions: 48 hours, LMB 18.5 nM (FIG. 8)
# Description: (§3) Neonatal rat ventricular myocyte (NRVM) preparation and culture. Hearts were dissected from 1 to 3 day-old Sprague-Dawley rats, minced, and digested with collagenase (Worthington; […]) and pancreatin (Sigma; 1× activity equivalent) in 1× Ads buffer (NaCl [116 mM], HEPES [20 mM; pH 7.4], NaH2PO4 [4.8 mM], KCl [5 mM], MgSO4 [[…]], and glucose [5.5 mM]). Cells were centrifuged through a step gradient of Percoll (Pharmacia) to separate myocytes from fibroblasts, and the myocyte pool was further enriched by pre-plating for 2 hours to remove adherent fibroblasts from the cell population. Cells were cultured overnight on dishes coated with gelatin (Sigma; 0.2%) in DMEM containing fetal bovine serum (FBS) (10%), L-glutamine (2 mM), and penicillin-streptomycin. After overnight culture, cells were washed with serum-free medium and maintained in DMEM supplemented with Neutridoma-SP (Roche Applied Science), which contains albumin, insulin, transferrin, and other defined organic and inorganic compounds, at either 0.1% or 0.3% v/v, as indicated.
# SERCA and MCIP immunoblot analysis. […] Protein concentrations were determined by Bradford Assay (Bio-Rad) and […] total protein resolved by SDS-PAGE with gradient gels (Invitrogen; 4%-20% polyacrylamide). […]
# [3] = system: neonatal rat ventricular myocytes (NRVM); experiment: Viability: calcein AM / ethidium staining (LIVE/DEAD kit); design: key to Calcein Fluorescence / Ethidium Fluorescence: +, fluorescence; −, no fluorescence; conditions: for Calcein Fluorescence / Ethidium Fluorescence: PE (20 μM), 48 hrs
# Description: as §3
# (§4) Toxicity measurements. Adenylate kinase (AK) was measured in culture supernatants employing the bioluminescent ToxiLight kit (BioWhittaker) according to the manufacturer's instructions. Assays were run in a 96-well format and values measured using a Fusion Plate Reader (Perkin Elmer/Packard). Cell viability was also assessed using the LIVE/DEAD Viability/Cytotoxicity Kit (Molecular Probes). This kit employs calcein AM fluorescent dye, which is retained by viable cells, and an ethidium homodimer, which only enters cells with damaged membranes.
# [4] = system: neonatal rat ventricular myocytes (NRVM); experiment: ANF competition ELISA, secreted ANF in culture supernatants; design: ANF induction (secreted ANF in culture supernatants): dose or concentration left out as unconfirmed; conditions: 48 hrs
# Description: as §1, §2
# [5] = system: neonatal rat ventricular myocytes (NRVM); experiment: Toxicity: adenylate kinase (AK) release into culture medium; conditions: 48 hours, LMB 18.5 nM (FIG. 6)
# Description: as §1
# as §4, with “This kit employs calcein AM fluorescent dye, which is retained by viable cells, and an ethidium homodimer, which only enters cells with damaged membranes.” left out
# [6] = system: neonatal rat ventricular myocytes (NRVM); experiment: Cell volume measurements by Coulter Counter; conditions: 48 hours
# Description: as §3
# Cell volume measurements. Three-dimensional measurements of isolates NRVM were conducted using a Coulter Model Z2 instrument (Beckman), as previously described (Said et al., 2004). […] Cell volumes are expressed as […].
# [7] = system: neonatal rat ventricular myocytes (NRVM); experiment: Sarcomere organization, α-actinin indirect immunofluorescence; design: key: +, organized sarcomeres; −, disorganized sarcomeres; conditions: 48 hrs, LMB 18.5 nM
# Description: as §3
# Indirect immunofluorescence. NRVM (2.5×105) were plated on gelatin-coated 6-well dishes. […] Proteins were visualized with an inverted fluorescence microscope (Olympus, BH-2) at 40× magnification and images captured using a digital camera (Roper Scientific, Photometrics).
# [8] = system: neonatal rat ventricular myocytes (NRVM); experiment: RNA dot blot analysis of fetal cardiac gene transcripts; conditions: 48 hrs, LMB 18.5 nM (FIG. 2)
# Description: as §3
# RNA analysis. NRVM were plated on gelatin-coated 10 cm dishes (2×10^6 cells/dish). Following the indicated treatments, RNA was isolated from cardiomyocytes using Trizol Reagent (Gibco/BRL). Total RNA ([…]) was vacuum blotted onto nitrocellulose membranes (Bio-Rad) using a 96-well format dot blotter (Bio-Rad). Membranes were blocked in 4×SSC containing SDS (1%), 5× Denhardt's Reagent, sodium pyrophosphate (0.05%), and […] sonicated salmon sperm DNA (4 hrs at […]) and incubated with ^32P-end-labeled oligonucleotide probes (1×10^6 cpm/ml; 14 hrs at […]). Sequences of oligonucleotides were as follows: ANF, 5′-[…]-3; a-SK-actin 5′-[…]-3′; a-MHC 5′-[…]-3′; b-MHC 5′-[…]-3′; GAPDH 5′-[…]-3′). Blots were washed twice with 0.5×SSC containing SDS (0.1%; 10 minutes at […]) and analyzed by autoradiography.
# [9] = system: neonatal rat ventricular myocytes (NRVM); experiment: α- and β-myosin heavy chain cytoblot assay
# Description: as §3
# α- and β-myosin heavy chain cytoblot assay. […] Cells were washed three times with PBS containing BSA (1%), luminol (Pierce) was added, and luminescence detected using a Fusion Plate Reader (Perkin Elmer/Packard).
# [10] = system: neonatal rat ventricular myocytes (NRVM); experiment: ANF protein by indirect immunofluorescence (perinuclear ANF); design: key to Perinuclear ANF: +, presence; −, absence; conditions: for Perinuclear ANF: LMB 18.5 nM
# Description: as §3
# Indirect immunofluorescence. NRVM (2.5×105) were plated on gelatin-coated 6-well dishes. Following the indicated treatments, cells were fixed with formalin (10%) in PBS, permeablized and blocked with PBS containing NP-40 (0.1%) and bovine serum albumin (BSA) (3%), and incubated in the same solution, but with primary antibodies for sarcomeric α-actinin (Sigma, mouse monoclonal; 1:200 dilution) or atrial natriuretic factor (ANF) (Peninsula Labs, rabbit polyclonal; 1:200 dilution). Cells were washed five times with PBS and incubated with fluorescein- or cy3-conjugated secondary antibodies (Jackson Labs, goat polyclonal; 1:200 dilution), followed by a brief incubation with Hoechst dye (Molecular Probes). Cells were washed five times in PBS, one time with water and sequentially covered with mounting solution (Molecular Probes, SlowFade) and glass coverslips. Proteins were visualized with an inverted fluorescence microscope (Olympus, BH-2) at 40× magnification and images captured using a digital camera (Roper Scientific, Photometrics).
smiles,measurement,setting,value
"CCC(=C/[C@H](C)C/C=C/C(C)=C/[C@@H](C)C(=O)[C@@H](C)[C@H](O)[C@@H](C)C/C(C)=C/C(=O)O)/C=C/[C@@H]1OC(=O)C=C[C@@H]1C [LMB, leptomycin B]",Agonist-induced increase in total cellular protein content,"[1]; PE or FBS, 72 hrs (text; FIG. 4 legend 48 hours), LMB 18.5 nM",effectively blocked
same,PE-induced downregulation of SERCA2 expression,[2],appeared to repress the modest downregulation
same,T3-induced SERCA2 protein expression,[2]; T3 (3 nM),failed to alter
same,Ethidium bromide staining (compromised membranes),[3]; LMB-treated cells (Table 5),not significantly stained by ethidium bromide
same,Calcein dye retention (viability),[3]; LMB-treated cells vs control cells (Table 5),retained calcein dye as effectively as control cells
same,Calcein Fluorescence,[3]; LMB 2.3 nM,+
same,Ethidium Fluorescence,[3]; LMB 2.3 nM,−
same,Calcein Fluorescence,[3]; LMB 4.6 nM,+
same,Ethidium Fluorescence,[3]; LMB 4.6 nM,−
same,Calcein Fluorescence,[3]; LMB 9.25 nM,+
same,Ethidium Fluorescence,[3]; LMB 9.25 nM,−
same,Calcein Fluorescence,[3]; LMB 18.5 nM,+
same,Ethidium Fluorescence,[3]; LMB 18.5 nM,−
same,ANF induction (secreted ANF in culture supernatants),[4]; low nanomolar concentrations of LMB (FIG. 1),efficiently blocked ANF induction
same,Adenylate kinase (AK) in culture medium,[5],did not increase AK
same,"Cell size (cell volume, Coulter Counter)",[6]; LMB 18.5 nM (FIG. 5),diminished cell size
same,Organized Sarcomeres,[7]; stimulus FBS (5%),−
same,Organized Sarcomeres,[7]; stimulus PE (20 μM),−
same,PE-induced downregulation of α-MyHC transcripts,[8],inhibited the subtle downregulation
same,PE-induced β-MyHC mRNA expression,[8],repressed
same,PE-mediated induction of ANF mRNA transcripts,[8],effectively blocked
same,PE-mediated induction of α-skeletal actin (α-SK-actin) mRNA transcripts,[8],effectively blocked
same,PE-induced β-MyHC protein expression,"[9]; 48 hrs, LMB 18.5 nM (FIG. 3)",repressed
same,T3-mediated coordinate regulation of α- and β-MyHC protein expression,"[9]; T3 (3 nM), 48 hours, LMB 18.5 nM (FIG. 7)",no significant effect
same,ANF immunostaining,"[10]; NRVM stimulated with PE or FBS, LMB present",markedly reduced
same,ANF expression induced by prostaglandin F2a and endothelin-1,"[10]; NRVM, immunofluorescence, LMB 18.5 nM (Table 3)",efficiently blocked ANF expression
same,Perinuclear ANF,"[10]; NRVM, stimulus ET-1 (50 nM)",−
same,Perinuclear ANF,"[10]; NRVM, stimulus FBS (5%)",−
same,Perinuclear ANF,"[10]; NRVM, stimulus PE (20 μM)",−
same,Perinuclear ANF,"[10]; NRVM, stimulus PGF2a (10 μM)",−
"Cc1ccc2[nH]c3c(c2c1)CCCC3NC(=O)CCl (stereo not drawn) [compound 5219668, 2-chloro-N-(6-methyl-2,3,4,9-tetrahydro-1H-carbazol-1-yl)acetamide]",Agonist-induced increase in protein synthesis (total cellular protein),"[1]; PE (20 μM), 48 hours, 5219668 1.25 μM (FIG. 10)",effectively blocked the increases
same,ANF induction in response to PE (secreted ANF),"[4]; PE (20 μM), 5219668 1.25 μM (FIG. 9)",efficiently blocked ANF induction
same,Agonist-induced increase in cell size (cell volume),"[6]; PE (20 μM), 5219668 1.25 μM (FIG. 11)",effectively blocked the increases
